One assay has as its target T1, hA1AR (Homo sapiens, UniProt P30542).
T1 construct: expressed in transfected cells; host or cells: CHO
T1 sequence (P30542 1-326): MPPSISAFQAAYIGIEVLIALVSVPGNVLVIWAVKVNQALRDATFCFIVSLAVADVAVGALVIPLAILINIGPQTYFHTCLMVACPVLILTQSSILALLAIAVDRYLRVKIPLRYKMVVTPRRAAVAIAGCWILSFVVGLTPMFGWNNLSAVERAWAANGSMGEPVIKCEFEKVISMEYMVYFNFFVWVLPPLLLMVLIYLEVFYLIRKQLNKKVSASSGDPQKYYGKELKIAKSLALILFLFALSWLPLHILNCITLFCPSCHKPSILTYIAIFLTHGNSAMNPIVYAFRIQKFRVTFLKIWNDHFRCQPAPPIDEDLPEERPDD
Briefly: Binding at hA1AR, CHO membranes (Example 7). The following applies: read-out: % inhibition hA1.

The next assay has as its target T2, hA2AAR (Homo sapiens, UniProt P29274).
T2 construct: expressed in transfected cells
Briefly: Binding at hA2AAR, HEK-293 membranes (Example 7). The following applies: for inhibition at 10 µM: read-out: % inhibition hA2A; for Ki: read-out: Affinity (Ki, nM) hA2A. As for the experimental part:
After harvesting, cells were homogenized and suspended in PBS.
Nonspecific binding was determined using a final concentration of 10 μM 51 diluted with the buffer.

For another assay, the target named is T3, hA3AR (Homo sapiens, UniProt P0DMS8).
T3 construct: expressed in transfected cells; host or cells: CHO
T3 sequence (P0DMS8 1-318): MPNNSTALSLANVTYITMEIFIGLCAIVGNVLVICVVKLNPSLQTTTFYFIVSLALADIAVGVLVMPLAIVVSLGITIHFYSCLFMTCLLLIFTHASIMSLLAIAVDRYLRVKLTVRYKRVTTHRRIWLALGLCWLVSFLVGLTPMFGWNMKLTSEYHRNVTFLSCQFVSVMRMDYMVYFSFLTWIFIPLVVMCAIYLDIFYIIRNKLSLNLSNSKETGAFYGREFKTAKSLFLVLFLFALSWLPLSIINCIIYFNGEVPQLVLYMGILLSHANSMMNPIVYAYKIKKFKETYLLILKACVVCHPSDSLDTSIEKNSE
Briefly: Binding at hA3AR, CHO membranes (Example 7). The following applies: read-out: Affinity (Ki, nM) hA3.

T2 sequence (P29274 whole entry): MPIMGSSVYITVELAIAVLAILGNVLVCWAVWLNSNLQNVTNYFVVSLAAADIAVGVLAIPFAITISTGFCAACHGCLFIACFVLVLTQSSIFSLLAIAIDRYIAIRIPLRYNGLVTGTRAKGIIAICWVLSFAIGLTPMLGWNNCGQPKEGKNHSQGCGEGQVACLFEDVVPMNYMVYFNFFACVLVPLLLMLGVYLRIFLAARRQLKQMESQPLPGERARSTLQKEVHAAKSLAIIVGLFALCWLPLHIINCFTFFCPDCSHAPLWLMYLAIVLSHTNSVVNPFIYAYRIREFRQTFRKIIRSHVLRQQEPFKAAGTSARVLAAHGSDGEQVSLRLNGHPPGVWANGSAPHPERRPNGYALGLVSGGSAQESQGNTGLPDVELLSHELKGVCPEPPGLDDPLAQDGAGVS
Description for hA3AR: CHO cells stably expressing the recombinant hA1, hA3, and rA3Rs, and HEK-293 cells stably expressing the hA2AAR were cultured in Dulbecco's modified Eagle medium (DMEM) and F12 (1:1) supplemented with 10% fetal bovine serum, 100 units/mL penicillin, 100 μg/mL streptomycin, and 2 μmol/mL glutamine. In addition, 800 μg/mL geneticin was added to the A2A media, while 500 μg/mL hygromycin was added to the A1 and A3 media. After harvesting, cells were homogenized and suspended in PBS. Cells were then centrifuged at 240 g for 5 min, and the pellet was resuspended in 50 mM Tris-HCl buffer (pH 7.5) containing 10 mM MgCl2. The suspension was homogenized and was then ultra-centrifuged at 14,330 g for 30 min at 4° C. […] The protein concentration was measured using the BCA Protein Assay Kit from Pierce Biotechnology, Inc. (Rockford, Ill.).
Into each tube in the binding assay was added 50 μL of increasing concentrations of the test ligand in Tris-HCl buffer (50 mM, pH 7.5) containing 10 mM MgCl2, 50 μL of the appropriate agonist radioligand, and finally 100 μL of membrane suspension. […] For the A2AAR (20 μg/tube) the radioligand used was [^3H]53 (10 nM). […] Nonspecific binding was determined using a final concentration of 10 μM 51 diluted with the buffer. The mixtures were incubated at 25° C. for 60 min in a shaking water bath. Binding reactions were terminated by filtration through Brandel GF/B filters under a reduced pressure using a M-24 cell harvester (Brandel, Gaithersburg, Md.). Filters were washed three times with 3 mL of 50 mM ice-cold Tris-HCl buffer (pH 7.5). […] Filters for A3AR binding were counted using a Packard COBRA™ II γ-counter. The Ki values were determined using GraphPad Prism for all assays.

In the case of `CNC(=O)[C@@]12C[C@@H]1[C@@H](n1cnc3c(NC)nc(C#Cc4cccc(N)c4)nc31)[C@H](O)[C@@H]2O` [Compound 318, (1S,2R,3S,4R,5S)-4-(2-((3-Aminophenyl)ethynyl)-6-(methylamino)-9H-purin-9-yl)-2,3-dihydroxy-N-methylbicyclo[3.1.0]hexane-1-carboxamide], the results for the inhibition at 10 µM at hA1AR and at hA2AAR were 16% and 19%, respectively. Moreover, at hA3AR, the Ki amounted to 1.07 ± 0.14 nM.
In the case of `CNC(=O)[C@@]12C[C@@H]1[C@@H](n1cnc3c(NC)nc(C#Cc4ccc(F)c(F)c4)nc31)[C@H](O)[C@@H]2O` [Compound 319, (1S,2R,3S,4R,5S)-4-(2-((3,4-Difluorophenyl)ethynyl)-6-(methylamino)-9H-purin-9-yl)-2,3-dihydroxy-N-methylbicyclo[3.1.0]hexane-1-carboxamide], the inhibition at 10 µM on hA1AR and on hA2AAR was 6% in each case. For the same molecule, the Ki on hA3AR worked out at 1.65 ± 0.08 nM.
As to `CNC(=O)[C@@]12C[C@@H]1[C@@H](n1cnc3c(NC)nc(C#Cc4cccc5ccccc45)nc31)[C@H](O)[C@@H]2O` [Compound 325, (1S,2R,3S,4R,5S)-2,3-Dihydroxy-N-methyl-4-(6-(methylamino)-2-(naphthalen-1-ylethynyl)-9H-purin-9-yl)bicyclo[3.1.0]hexane-1-carboxamide], the figures for the inhibition at 10 µM at hA1AR and at hA2AAR were 24% and 34%, respectively. The Ki at hA3AR was determined as 1.67 ± 0.18 nM.
As for `CNC(=O)[C@@]12C[C@@H]1[C@@H](n1cnc3c(NCc4cccc(Cl)c4)nc(C#Cc4cccc(C(=O)O)c4)nc31)[C@H](O)[C@@H]2O` [Compound 333, 3-((6-(3-Chlorobenzylamino)-9-((1S,2R,3S,4R,5S)-3,4-dihydroxy-5-(methylcarbamoyl)bicyclo[3.1.0]hexan-2-yl)-9H-purin-2-yl)ethynyl)benzoic acid], the inhibition at 10 µM amounted to 1% on hA1AR and 38% on hA2AAR. In addition, the Ki at hA3AR was 6.75 ± 2.78 nM.
Consider `CNC(=O)[C@@]12C[C@@H]1[C@@H](n1cnc3c(NC)nc(C#Cc4ccccn4)nc31)[C@H](O)[C@@H]2O` [Compound 310, (1S,2R,3S,4R,5S)-2,3-Dihydroxy-N-methyl-4-(6-(methylamino)-2-(pyridin-2-ylethynyl)-9H-purin-9-yl)bicyclo[3.1.0]hexane-1-carboxamide], for which the inhibition at 10 µM at hA1AR and at hA2AAR was 13% each time.
As for `CNC(=O)[C@@]12C[C@@H]1[C@@H](n1cnc3c(NC)nc(C#Cc4ccc(C(C)(C)C)cc4)nc31)[C@H](O)[C@@H]2O` [Compound 322, (1S,2R,3S,4R,5S)-4-(2-((4-tert-Butylphenyl)ethynyl)-6-(methylamino)-9H-purin-9-yl)-2,3-dihydroxy-N-methylbicyclo[3.1.0]hexane-1-carboxamide], the results for the inhibition at 10 µM on hA1AR and at hA2AAR were 27% and 7%, respectively. In addition, the Ki at hA3AR stood at 10.1 ± 1.9 nM.
Take `CNC(=O)[C@@]12C[C@@H]1[C@@H](n1cnc3c(NC)nc(C#Cc4ccc(-c5ccccc5)cc4)nc31)[C@H](O)[C@@H]2O` [Compound 324, (1S,2R,3S,4R,5S)-4-(2-(Biphenyl-4-ylethynyl)-6-(methylamino)-9H-purin-9-yl)-2,3-dihydroxy-N-methylbicyclo[3.1.0]hexane-1-carboxamide]: the inhibition at 10 µM turned out to be 20% at hA1AR and 29% at hA2AAR. In addition, at hA3AR, the Ki was determined as 3.1 ± 1.26 nM.
Consider `CNC(=O)[C@@]12C[C@@H]1[C@@H](n1cnc3c(NCc4cccc(Cl)c4)nc(C#Cc4cccc(Cl)c4)nc31)[C@H](O)[C@@H]2O` [Compound 330, (1S,2R,3S,4R,5S)-4-(6-(3-Chlorobenzylamino)-2-((3-chlorophenyl)ethynyl)-9H-purin-9-yl)-2,3-dihydroxy-N-methylbicyclo[3.1.0]hexane-1-carboxamide], for which the inhibition at 10 µM at hA1AR was 0%. In addition, the results for the Ki at hA2AAR and on hA3AR were 1620 nM and 1.95 nM, respectively.
With `CNC(=O)[C@@]12C[C@@H]1[C@@H](n1cnc3c(NC)nc(C#Cc4cccc(F)c4)nc31)[C@H](O)[C@@H]2O` [Compound 312, (1S,2R,3S,4R,5S)-4-(2-((3-Fluorophenyl)ethynyl)-6-(methylamino)-9H-purin-9-yl)-2,3-dihydroxy-N-methylbicyclo[3.1.0]hexane-1-carboxamide], the results for the inhibition at 10 µM at hA1AR and at hA2AAR were 14% and 10%, respectively. For the same molecule, the Ki at hA3AR was 0.97 ± 0.24 nM.
Regarding `CNC(=O)[C@@]12C[C@@H]1[C@@H](n1cnc3c(NC)nc(C#Cc4ccccc4)nc31)[C@H](O)[C@@H]2O` [Compound 309, (1S,2R,3S,4R,5S)-2,3-Dihydroxy-N-methyl-4-(6-(methylamino)-2-(phenylethynyl)-9H-purin-9-yl)bicyclo[3.1.0]hexane-1-carboxamide], the inhibition at 10 µM was 18% at hA1AR and 14% on hA2AAR.
`CNC(=O)[C@@]12C[C@@H]1[C@@H](n1cnc3c(NC)nc(C#Cc4ccc(C(C)=O)cc4)nc31)[C@H](O)[C@@H]2O` [Compound 323, (1S,2R,3S,4R,5S)-4-(2-((4-Acetylphenyl)ethynyl)-6-(methylamino)-9H-purin-9-yl)-2,3-dihydroxy-N-methylbicyclo[3.1.0]hexane-1-carboxamide]: the inhibition at 10 µM on hA1AR came out at 8%; on hA2AAR, 62%. The Ki on hA3AR was determined as 2.57 ± 0.78 nM.
On to `CNC(=O)[C@@]12C[C@@H]1[C@@H](n1cnc3c(NCc4cccc(Cl)c4)nc(C#Cc4ccc(F)c(F)c4)nc31)[C@H](O)[C@@H]2O` [Compound 331, (1S,2R,3S,4R,5S)-4-(6-(3-Chlorobenzylamino)-2-((3,4-difluorophenyl)ethynyl)-9H-purin-9-yl)-2,3-dihydroxy-N-methylbicyclo[3.1.0]hexane-1-carboxamide], for which the inhibition at 10 µM stood at 3% on hA1AR and 41% at hA2AAR.
For `CCc1ccc(C#Cc2nc(NC)c3ncn([C@H]4[C@H](O)[C@H](O)[C@]5(C(=O)NC)C[C@H]45)c3n2)cc1` [Compound 321, (1S,2R,3S,4R,5S)-4-(2-((4-Ethylphenyl)ethynyl)-6-(methylamino)-9H-purin-9-yl)-2,3-dihydroxy-N-methylbicyclo[3.1.0]hexane-1-carboxamide], the inhibition at 10 µM was determined as 14% on hA1AR and 38% at hA2AAR. In addition, on hA3AR, the Ki was found to be 3.78 ± 1.16 nM.
On the same counts, the results for `CNC(=O)[C@@]12C[C@@H]1[C@@H](n1cnc3c(NC)nc(C#Cc4cc(F)cc(F)c4)nc31)[C@H](O)[C@@H]2O` [Compound 320, (1S,2R,3S,4R,5S)-4-(2-((3,5-Difluorophenyl)ethynyl)-6-(methylamino)-9H-purin-9-yl)-2,3-dihydroxy-N-methylbicyclo[3.1.0]hexane-1-carboxamide] are 6%, 47% and 1.66 ± 0.36 nM.
On the same counts, the results for `CNC(=O)[C@@]12C[C@@H]1[C@@H](n1cnc3c(NC)nc(C#Cc4ccc(Cl)cc4)nc31)[C@H](O)[C@@H]2O` [Compound 316, (1S,2R,3S,4R,5S)-4-(2-((4-Chlorophenyl)ethynyl)-6-(methylamino)-9H-purin-9-yl)-2,3-dihydroxy-N-methylbicyclo[3.1.0]hexane-1-carboxamide] are 13%, 30% and 1.22 ± 0.31 nM.
Consider `CNC(=O)[C@@]12C[C@@H]1[C@@H](n1cnc3c(NC)nc(C#Cc4cccc(Cl)c4)nc31)[C@H](O)[C@@H]2O` [Compound 315, (1S,2R,3S,4R,5S)-4-(2-((3-Chlorophenyl)ethynyl)-6-(methylamino)-9H-purin-9-yl)-2,3-dihydroxy-N-methylbicyclo[3.1.0]hexane-1-carboxamide], for which, on hA1AR, the inhibition at 10 µM turned out to be 11%. For the same molecule, the Ki at hA2AAR came out at 1270 ± 300 nM; on hA3AR it was 1.6 ± 0.6 nM.
In the case of `CNC(=O)[C@@]12C[C@@H]1[C@@H](n1cnc3c(NC)nc(C#Cc4cc5ccccc5c5ccccc45)nc31)[C@H](O)[C@@H]2O` [Compound 326, (1S,2R,3S,4R,5S)-2,3-Dihydroxy-N-methyl-4-(6-(methylamino)-2-(phenanthren-9-ylethynyl)-9H-purin-9-yl)bicyclo[3.1.0]hexane-1-carboxamide], the inhibition at 10 µM at hA1AR was found to be 15%; at hA2AAR, 52%. In addition, the Ki at hA3AR was 3.48 ± 1.36 nM.
For `CNC(=O)[C@@]12C[C@@H]1[C@@H](n1cnc3c(NC)nc(C#Cc4ccc(Br)cc4)nc31)[C@H](O)[C@@H]2O` [Compound 317, (1S,2R,3S,4R,5S)-4-(2-((4-Bromophenyl)ethynyl)-6-(methylamino)-9H-purin-9-yl)-2,3-dihydroxy-N-methylbicyclo[3.1.0]hexane-1-carboxamide], the inhibition at 10 µM at hA1AR came to 11%; at hA2AAR, 26%. At hA3AR, the Ki came out at 0.91 ± 0.06 nM.

A word on the inhibition: it is how much of the control response was suppressed. One may read the Ki as a measure of affinity in units of concentration, obtained from inhibition or displacement.

Values taken from patent US8916570B2 (The United States of America, as represented by the …, priority 2008, dated 2014).
